Data on four compounds can be found in US20250154146A1, “PROTEIN DEGRADERS DEVELOPED ON BASIS OF BCL-2 FAMILY PROTEIN LIGAND COMPOUNDS AND USE THEREOF” (ShanghaiTech University, priority 2022, published 2025).

Structures are written as SMILES.

Common to all, as to format: cell-based
One assay relates to MV4;11 cells. The experiment in a line: Thiazolyl blue cell proliferation assay in MV4;11 cells. To be noted: Homo sapiens, MV4;11 myeloid monocytic leukemia cells, 48 hours, read-out: IC50 (nM) for inhibiting the proliferation of MV4;11 cells. An excerpt: (§1) The cell lines RS4;11 (human acute lymphocytic leukemia cells), Molt-4 cells (human acute lymphocytic leukemia cells), MV4;11 (human myeloid monocytic leukemia cells), and Light II cells were commercially available or purchased from ATCC (American Type Culture Collection) and routinely cultured according to instructions.
2) Study on the proliferation inhibition effects induced by the compounds of the present disclosure designed based on ABT199/263 against BCL-XL-dependent MV4;11 cells:
(§2) The specific steps were as follows: MV4;11 cells were seeded at a density of 2×10^4 cells/well in 90 μL of serum-containing IMDM culture medium. DT2216 and the compounds of the present disclosure were added to the cell suspension at corresponding concentration gradients. DT2216 and DMSO were used as positive and vehicle control, respectively. The positive control and negative control were treated with the same treatment method as the compounds of the present disclosure. After treating the cells with the compounds of the present disclosure for 48 hours, thiazole blue solution (5 mg/mL) was added at 10 µL/well to the cell suspension, followed by incubation for 3 hours at 37° C. in an incubator with 5% CO2. Then, triple solution (0.1 g/mL SDS, 5% isopropyl alcohol, 10 mM hydrochloric acid) was added, followed by incubation for 4-6 hours at 37° C. in an incubator with 5% CO2. After confirming that all the crystal violets were dissolved under inverted biological microscopy, the absorbance was measured at 490 nm using an Epoch microplate reader (Biotek Corporation). The growth inhibition of the compounds of the present disclosure on the cells was plotted by GraphPad Prism 8 software, and the IC50 values of the compounds of the present disclosure were calculated therefrom. The experiment had 3 replicates per group and was repeated at least three times.

For a further assay, the system named is Molt-4 cells. The experiment in a line: Thiazolyl blue cell proliferation assay in Molt-4 cells. Particulars: Homo sapiens, Molt-4 acute lymphocytic leukemia cells, 72 hours, read-out: IC50 (nM) for inhibiting the proliferation of Molt-4 cells.
Source text: as §1
3) Study on the proliferation inhibition effects induced by the compounds of the present disclosure designed based on ABT199/263 against BCL-XL-dependent Molt-4 cells:
as §2, with “follows: Molt-4” for “follows: MV4;11”, “in 180” for “in 90”, “serum-containing RPMI 1640” for “serum-containing IMDM”, “for 72” for “for 48”, “at 20 μL/well” for “at 10 µL/well”

The test system of another assay is RS4;11 cells. The experiment in a line: Thiazolyl blue cell proliferation assay in RS4;11 cells. Particulars: Homo sapiens, RS4;11 acute lymphoblastic leukemia cells, 48 hours, read-out: IC50 (nM) for inhibiting the proliferation of RS4;11 cells.
Source text: as §1
1) Study on the proliferation inhibition effects induced by the compounds of the present disclosure designed based on ABT199/263 against BCL-XL-dependent RS4;11 cells:
as §2, with “RS4;11” for “MV4;11”, “3×10^4” for “2×10^4”, “RPMI-1640” for “IMDM”, “μL/well” for “µL/well”
We conducted dose-dependent experiments on the designed and synthesized compounds of the present disclosure in RS4;11 cells, which are highly sensitive to BCL-XL inhibitors. The cells were treated with 7 different concentrations (starting at the highest concentration of 1000 nM or 100 nM; 10-fold serial dilutions) of the compounds for 48 hours, and then tested using the thiazolyl blue cell proliferation assay.

The subject of assay [1] is Hedgehog (Hh) signaling pathway. Kind of assay: Dual-luciferase reporter assay of Hedgehog activity in Light II cells. Particulars: SAG stimulation, 36 h, dual-luciferase assay reporter kit, read-out: IC50 (nM) in Light II cells (inhibiting Hedgehog activity). As to the method:
Determination of the IC50 Values of Compounds Inhibiting Hedgehog Activity—Dual-Luciferase Reporter Assay:
Light II cells were NIH3T3 cell lines that stably express the Gli-luciferase and TK-renilla reporters. They were cultured with DMEM medium containing 10% (v/v) fetal bovine serum (FBS), 0.4 mg/ml G418, 0.15 mg/ml bleomycin (Zeocin), and penicillin/streptomycin at 37° C. in an incubator with 5% CO2. Light II cells in the logarithmic growth phase were seeded at a density of 2.5×10^4 cells/well in a 96-well plate. After 24h incubation, the cells were subjected to treatment with SAG with or without different concentrations of the compounds of the present disclosure for 36 h. After that, the Hedgehog activity was measured using the dual fluorescence reporter kit according to its instructions. The experiment had 3 replicates per group and was repeated at least three times.

With `C[C@@H]1CN([C@H]2CC[C@H](CNc3ccc(S(=O)(=O)NC(=O)c4ccc(N5CCN(CC6=C(c7ccc(Cl)cc7)CC(C)(C)CC6)CC5)cc4Oc4cnc5[nH]ccc5c4)cc3[N+](=O)[O-])CC2)CCN1Cc1ccc2c(c1)CN(C1CCC(=O)NC1=O)C2=O` (stereo partly drawn) [BCL-03168, 2-((1H-pyrrolo[2,3-b]pyridin-5-yl)oxy)-4-(4-((4′-chloro-5,5-dimethyl-3,4,5,6-tetrahydro-[1,1′-biphenyl]-2-yl)methyl)piperazin-1-yl)-N-((4-((((trans)-4-((3R)-4-((2-(2,6-dioxopiperidin-3-yl)-1-oxoisoindolin-5-yl)methyl)-3-methylpiperazin-1-yl)cyclohexyl)methyl)amino)-3-nitrophenyl)sulfonyl)benzamide], the IC50 is less than 20 nM with MV4;11 cells, less than 10 nM in the assay with Molt-4 cells, less than 20 nM in the assay on RS4;11 cells and less than 10 nM in assay [1].

For the compound `C[C@H]1CN([C@H]2CC[C@@H](CNc3ccc(S(=O)(=O)NC(=O)c4ccc(N5CCN(CC6=C(c7ccc(Cl)cc7)CC(C)(C)CC6)CC5)cc4Oc4cnc5[nH]ccc5c4)cc3[N+](=O)[O-])CC2)CCN1Cc1ccc2c(c1)CN(C1CCC(=O)NC1=O)C2=O` (stereo partly drawn) [BCL-03165, 2-((1H-pyrrolo[2,3-b]pyridin-5-yl)oxy)-4-(4-((4′-chloro-5,5-dimethyl-3,4,5,6-tetrahydro-[1,1′-biphenyl]-2-yl)methyl)piperazin-1-yl)-N-((4-((((cis)-4-((3S)-4-((2-(2,6-dioxopiperidin-3-yl)-1-oxoisoindolin-5-yl)methyl)-3-methylpiperazin-1-yl)cyclohexyl)methyl)amino)-3-nitrophenyl)sulfonyl)benzamide], the IC50 in the assay with MV4;11 cells is less than 20 nM; in the assay with Molt-4 cells, less than 10 nM; in the assay with RS4;11 cells it was less than 20 nM; in assay [1], less than 10 nM.

As to `C[C@H]1CN([C@H]2CC[C@H](CNc3ccc(S(=O)(=O)NC(=O)c4ccc(N5CCN(CC6=C(c7ccc(Cl)cc7)CC(C)(C)CC6)CC5)cc4Oc4cnc5[nH]ccc5c4)cc3[N+](=O)[O-])CC2)CCN1Cc1ccc2c(c1)CN(C1CCC(=O)NC1=O)C2=O` (stereo partly drawn) [BCL-03166, 2-((1H-pyrrolo[2,3-b]pyridin-5-yl)oxy)-4-(4-((4′-chloro-5,5-dimethyl-3,4,5,6-tetrahydro-[1,1′-biphenyl]-2-yl)methyl)piperazin-1-yl)-N-((4-((((trans)-4-((3S)-4-((2-(2,6-dioxopiperidin-3-yl)-1-oxoisoindolin-5-yl)methyl)-3-methylpiperazin-1-yl)cyclohexyl)methyl)amino)-3-nitrophenyl)sulfonyl)benzamide], the IC50 in the assay with MV4;11 cells was less than 20 nM; with Molt-4 cells, less than 10 nM; in the assay on RS4;11 cells, less than 20 nM; in assay [1], less than 10 nM.

With `CC1(C)CCC(c2ccc(Cl)cc2)=C(CN2CCN(c3ccc(C(=O)NS(=O)(=O)c4ccc(N[C@H](CCN5CCN(Cc6ccc7c(c6)C(=O)N(C6CCC(=O)NC6=O)C7=O)CC5)CSc5ccccc5)c(S(=O)(=O)C(F)(F)F)c4)cc3)CC2)C1` (stereo partly drawn) [BCL-03189, 4-(4-((4′-chloro-4,4-dimethyl-3,4,5,6-tetrahydro-[1,1′-biphenyl]-2-yl)methyl)piperazin-1-yl)-N-((4-(((2R)-4-(4-((2-(2,6-dioxopiperidin-3-yl)-1,3-dioxoisoindolin-5-yl)methyl)piperazin-1-yl)-1-(phenylthio)butan-2-yl)amino)-3-((trifluoromethyl)sulfonyl)phenyl)sulfonyl)benzamide], the IC50 is less than 20 nM with MV4;11 cells, less than 10 nM in the assay on Molt-4 cells, less than 20 nM with RS4;11 cells and less than 10 nM in assay [1].
